Reference: patent US10131653B2, “Heterocyclic compound” (TAKEDA PHARMACEUTICAL COMPANY LIMITED, priority 2015, dated 2018)
Counter-ions that a name gives are not always drawn.

Tests used:
human OX1 receptor = molecular target: T1, human OX1 receptor (Homo sapiens, UniProt O43613); assay: Measurement of orexin receptor antagonistic activity (calcium fluorescence, FLIPRtetra); type: cell-based; conditions: CHO, 10 μM test compound; CHO cells expressing human OX1 receptor; OX-A 1 nM; read-out: Human Orexin1 receptor inhibition (at 10 μM)
T1 construct: expressed in transfected cells; host or cells: CHO cells
T1 sequence (O43613 1-425): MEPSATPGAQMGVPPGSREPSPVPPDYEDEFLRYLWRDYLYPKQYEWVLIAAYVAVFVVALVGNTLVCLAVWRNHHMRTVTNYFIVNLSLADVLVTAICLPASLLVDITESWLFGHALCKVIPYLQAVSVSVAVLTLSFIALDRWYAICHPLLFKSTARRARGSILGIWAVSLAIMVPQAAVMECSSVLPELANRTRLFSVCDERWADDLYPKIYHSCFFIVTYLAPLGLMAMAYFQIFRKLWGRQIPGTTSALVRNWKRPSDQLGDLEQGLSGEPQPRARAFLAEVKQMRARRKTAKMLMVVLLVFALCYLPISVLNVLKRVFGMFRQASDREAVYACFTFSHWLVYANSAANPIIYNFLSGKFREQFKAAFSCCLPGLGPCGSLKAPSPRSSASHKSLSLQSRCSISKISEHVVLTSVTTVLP
Outline: (§1)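 CHO cells expressing human OX1 or OX2 receptor, cultured one day. Compound in HBSS/20 mM HEPES/0.1% BSA added, then orexin-A at 1 nM final (OX1) or 0.3 nM final (OX2); calcium fluorescence by FLIPRtetra every 1 s for 2 min.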

human OX2 receptor = molecular target: T2, human OX2 receptor (Homo sapiens, UniProt O43614); assay: as above; type: cell-based; conditions: CHO, 10 μM test compound; CHO cells expressing human OX2 receptor; OX-A 0.3 nM; read-out: Human Orexin2 receptor inhibition (at 10 μM)
T2 construct: expressed in transfected cells; host or cells: CHO cells
T2 sequence (O43614 1-444): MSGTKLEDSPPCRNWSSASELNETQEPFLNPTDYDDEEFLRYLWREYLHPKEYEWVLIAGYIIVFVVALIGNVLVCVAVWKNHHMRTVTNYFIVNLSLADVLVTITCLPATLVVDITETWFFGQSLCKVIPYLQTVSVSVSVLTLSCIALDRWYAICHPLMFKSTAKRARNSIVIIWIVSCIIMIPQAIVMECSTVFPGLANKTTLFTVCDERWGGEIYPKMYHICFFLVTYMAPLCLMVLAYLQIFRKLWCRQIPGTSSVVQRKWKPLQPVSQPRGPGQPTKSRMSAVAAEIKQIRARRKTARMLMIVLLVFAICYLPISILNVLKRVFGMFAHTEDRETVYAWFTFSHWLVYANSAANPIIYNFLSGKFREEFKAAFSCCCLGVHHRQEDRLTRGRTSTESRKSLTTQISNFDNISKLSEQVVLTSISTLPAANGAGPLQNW
Outline: as §1

inhibition at 10 µM (human OX1 receptor) [%]	inhibition at 10 µM (human OX2 receptor) [%]	Structure (SMILES)
53	100	Cc1cc(N2CCN(C(=O)c3ccccc3-n3nccn3)[C@H](C)CO2)nc(C)n1 [Example 148, ((6R)-2-(2,6-dimethylpyrimidin-4-yl)-6-methyl-1,2,5-oxadiazepan-5-yl) (2-(2H-1,2,3-triazol-2-yl)phenyl)methanone]
3	-6	C[C@@H]1CON(c2ncc(F)c(O)n2)CCN1C(=O)c1ccccc1-n1nccn1 [Example 149, ((6R)-2-(5-fluoro-4-hydroxypyrimidin-2-yl)-6-methyl-1,2,5-oxadiazepan-5-yl) (2-(2H-1,2,3-triazol-2-yl)phenyl)methanone]
58	99	C[C@@H]1CON(c2cc(C3CC3)ncn2)CCN1C(=O)c1ccccc1-n1nccn1 [Example 150, ((6R)-2-(6-cyclopropylpyrimidin-4-yl)-6-methyl-1,2,5-oxadiazepan-5-yl) (2-(2H-1,2,3-triazol-2-yl)phenyl)methanone]
81	98	CCc1ccnc(N2CCN(C(=O)c3ccccc3-n3nccn3)[C@H](C)CO2)n1 [Example 151, ((6R)-2-(4-ethylpyrimidin-2-yl)-6-methyl-1,2,5-oxadiazepan-5-yl) (2-(2H-1,2,3-triazol-2-yl)phenyl)methanone]
82	99	Cc1cc(C#N)nc(N2CCN(C(=O)c3ccccc3-n3nccn3)[C@H](C)CO2)n1 [Example 152, 6-methyl-2-((6R)-6-methyl-5-(2-(2H-1,2,3-triazol-2-yl)benzoyl)-1,2,5-oxadiazepan-2-yl)pyrimidine-4-carbonitrile]
94	99	COc1cc(N2CCN(C(=O)c3ccccc3-n3nccn3)[C@H](C)CO2)nc(OC)n1 [Example 153, ((6R)-2-(2,6-dimethoxypyrimidin-4-yl)-6-methyl-1,2,5-oxadiazepan-5-yl)(2-(2H-1,2,3-triazol-2-yl)phenyl)methanone]
97	91	Cc1cc(N2CCN(C(=O)c3ccccc3-n3nccn3)[C@H](C)CO2)nc(C(C)(C)C)n1 [Example 154, ((6R)-2-(2-tert-butyl-6-methylpyrimidin-4-yl)-6-methyl-1,2,5-oxadiazepan-5-yl)(2-(2H-1,2,3-triazol-2-yl)phenyl)methanone]
100	103	Cc1cc(N2CCN(C(=O)c3ccccc3-n3nccn3)[C@H](C)CO2)nc(C2(C)CC2)n1 [Example 155, ((6R)-6-methyl-2-(6-methyl-2-(1-methylcyclopropyl)pyrimidin-4-yl-1,2,5-oxadiazepan-5-yl)(2-(2H-1,2,3-triazol-2-yl)phenyl)methanone hydrochloride]
18	19	Cc1ccc(C#N)c(N2CCN(C(=O)c3ccccc3-n3nccn3)[C@H](C)CO2)n1 [Example 156, 6-methyl-2-((6R)-6-methyl-5-(2-(2H-1,2,3-triazol-2-yl)benzoyl)-1,2,5-oxadiazepan-2-yl)nicotinonitrile]
93	91	COc1cccc(N2CCN(C(=O)c3ccccc3-n3nccn3)[C@H](C)CO2)n1 [Example 157, ((6R)-2-(6-methoxypyridin-2-yl)-6-methyl-1,2,5-oxadiazepan-5-yl)(2-(2H-1,2,3-triazol-2-yl)phenyl)methanone]
18	99	C[C@@H]1CON(c2cccc(CO)n2)CCN1C(=O)c1ccccc1-n1nccn1 [Example 158, ((6R)-2-(6-(hydroxymethyl)pyridin-2-yl)-6-methyl-1,2,5-oxadiazepan-5-yl)(2-(2H-1,2,3-triazol-2-yl)phenyl)methanone]
16	89	COc1ncnc(N2CCN(C(=O)c3ccccc3-n3nccn3)[C@H](C)CO2)n1 [Example 159, ((6R)-2-(4-methoxy-1,3,5-triazin-2-yl)-6-methyl-1,2,5-oxadiazepan-5-yl)(2-(2H-1,2,3-triazol-2-yl)phenyl)methanone]
82	101	COc1cc(N2CCN(C(=O)c3ccccc3-n3nccn3)[C@H](C)CO2)nc(C)n1 [Example 160, ((6R)-2-(6-methoxy-2-methylpyrimidin-4-yl)-6-methyl-1,2,5-oxadiazepan-5-yl)(2-(2H-1,2,3-triazol-2-yl)phenyl)methanone]
46	102	Cc1cc(C)nc(N2CCN(C(=O)c3cc(F)ccc3-n3nccn3)[C@H](C)CO2)n1 [Example 161, ((6R)-2-(4,6-dimethylpyrimidin-2-yl)-6-methyl-1,2,5-oxadiazepan-5-yl)(5-fluoro-2-(2H-1,2,3-triazol-2-yl)phenyl)methanone hydrochloride]
42	100	Cc1cc(N2CCN(C(=O)c3cc(F)ccc3-n3nccn3)[C@H](C)CO2)nc(C)n1 [Example 162, ((6R)-2-(2,6-dimethylpyrimidin-4-yl)-6-methyl-1,2,5-oxadiazepan-5-yl)(5-fluoro-2-(2H-1,2,3-triazol-2-yl)phenyl)methanone]
61	102	Cc1cc(C#N)nc(N2CCN(C(=O)c3cc(F)ccc3-n3nccn3)[C@H](C)CO2)n1 [Example 163, 2-((6R)-5-(5-fluoro-2-(2H-1,2,3-triazol-2-yl)benzoyl)-6-methyl-1,2,5-oxadiazepan-2-yl)-6-methylpyrimidine-4-carbonitrile]
8	43	Cc1csc(N2CCN(C(=O)c3cc(F)ccc3-n3nccn3)[C@H](C)CO2)n1 [Example 164, (5-fluoro-2-(2H-1,2,3-triazol-2-yl)phenyl)((6R)-6-methyl-2-(4-methyl-1,3-thiazol-2-yl)-1,2,5-oxadiazepan-5-yl)methanone]
24	24	C[C@@H]1CON(c2ncnc3ccn(C)c23)CCN1C(=O)c1cc(F)ccc1-n1nccn1 [Example 165, (5-fluoro-2-(2H-1,2,3-triazol-2-yl)phenyl)((6R)-6-methyl-2-(5-methyl-5H-pyrrolo[3,2-d]pyrimidin-4-yl)-1,2,5-oxadiazepan-5-yl)methanone]
81	97	Cc1nc(N2CCN(C(=O)c3cc(F)ccc3-n3nccn3)[C@H](C)CO2)nc(C)c1F [Example 166, ((6R)-2-(5-fluoro-4,6-dimethylpyrimidin-2-yl)-6-methyl-1,2,5-oxadiazepan-5yl)(5-fluoro-2-(2H-1,2,3-triazol-2-yl)phenyl)methanone]
100	98	Cc1nc(N2CCN(C(=O)c3cc(F)ccc3-n3nccn3)[C@H](C)CO2)nc(C)c1Cl [Example 167, ((6R)-2-(5-chloro-4,6-dimethylpyrimidin-2-yl)-6-methyl-1,2,5-oxadiazepan-5-yl)(5-fluoro-2-(2H-1,2,3-triazol-2-yl)phenyl)methanone]
95	99	CC[C@@H]1CON(c2cc(C)nc(C)n2)CCN1C(=O)c1ccccc1-n1nccn1 [Example 168, ((6R)-2-(2,6-dimethylpyrimidin-4-yl)-6-ethyl-1,2,5-oxadiazepan-5-yl)(2-(2H-1,2,3-triazol-2-yl)phenyl)methanone]
100	99	CC[C@@H]1CON(c2cc(C)nc(C)n2)CCN1C(=O)c1ccccc1-c1nccs1 [Example 169, ((6R)-2-(2,6-dimethylpyrimidin-4-yl)-6-ethyl-1,2,5-oxadiazepan-5-yl)(2-(1,3-thiazol-2-yl)phenyl)methanone]
20	100	Cc1cc(N2CCN(C(=O)c3ccccc3-n3nccn3)[C@@H](C)CO2)nc(C)n1 [Example 170, ((6S)-2-(2,6-dimethylpyrimidin-4-yl)-6-methyl-1,2,5-oxadiazepan-5-yl)(2-(2H-1,2,3-triazol-2-yl)phenyl)methanone]
37	102	Cc1cc(N2CCN(C(=O)c3ccccc3-c3nccs3)[C@@H](C)CO2)nc(C)n1 [Example 171, ((6S)-2-(2,6-dimethylpyrimidin-4-yl)-6-methyl-1,2,5-oxadiazepan-5-yl)(2-(1,3-thiazol-2-yl)phenyl)methanone]
